Data reported in US7078406B2, “Substituted diphenyloxazoles, the synthesis thereof, and the use thereof as fluorescence probes” (Johnson & Johnson Pharmaceutical Research & Development, …, priority 2001, dated 2006).
Entries after “also recorded” stand apart in the source; their conditions may differ.

How the values were obtained:
[1] = target: thrombin (Homo sapiens, UniProt P00734); test: Fluorescence emission spectra of dye mixed with native and heat-unfolded thrombin; conditions: for emission maximum (comparison dyes): comparison value, conditions not stated
Method: FIG. 2 provides the fluorescence emission spectra of 4-[5-(4-dimethylaminophenyl)oxazol-2-yl]-N-(2-guanidinoethyl)-benzenesulfonamide (10 μM) mixed with thrombin (0.1 mg/mL) in buffer (50 mM HEPES, pH 7.5, 150 mM NaCl). The emission spectrum indicated by the squares was acquired with native (folded) thrombin, immediately after preparing the solution. The emission spectrum indicated by the triangles was obtained after heating the solution to 80° C. for five minutes to unfold the thrombin protein.
(§1) 4-[5-(4-dimethylaminophenyl)oxazol-2-yl]-N-(2-guanidinoethyl)-benzenesulfonamide was mixed with different solvents to yield a final dye concentration of 10 μM. The spectra of this dye in methanol (MeOH), dimethyl sulfoxide (DMSO), and aqueous buffer (50 mM HEPES, pH7.5, 150 mM sodium chloride) are shown in FIG. 1. This figure illustrates the marked enhancement in emission intensity (200–500 fold) observed for this dye when it is shifted from an aqueous environment to a nonaqueous environment. The 4-[5-(4-dimethylaminophenyl)oxazol-2-yl]-N-(2-guanidinoethyl)benzenesulfonamide was mixed with a 0.1 mg/mL solution of thrombin, a protein, in buffer (50 mM HEPES, pH7.5, 150 mM sodium chloride), to yield a final dye concentration of 10 μM. The fluorescence emission spectra of this solution were recorded both immediately after mixing and also following heating of the solution to 80° C. for 5 minutes.

[2] = target: T1, PPAR-gamma (Homo sapiens, UniProt P37231); test: Fluorescence curves on heating in a Thermofluor instrument (protein unfolding transition); conditions: 100 μM dye, 0.2 mg/mL protein, 25 mM HEPES pH 7.9, 200 mM NaCl, 5 mM dithiothreitol, 1 mM EDTA, 384-well plate
T1 sequence (P37231 1-505): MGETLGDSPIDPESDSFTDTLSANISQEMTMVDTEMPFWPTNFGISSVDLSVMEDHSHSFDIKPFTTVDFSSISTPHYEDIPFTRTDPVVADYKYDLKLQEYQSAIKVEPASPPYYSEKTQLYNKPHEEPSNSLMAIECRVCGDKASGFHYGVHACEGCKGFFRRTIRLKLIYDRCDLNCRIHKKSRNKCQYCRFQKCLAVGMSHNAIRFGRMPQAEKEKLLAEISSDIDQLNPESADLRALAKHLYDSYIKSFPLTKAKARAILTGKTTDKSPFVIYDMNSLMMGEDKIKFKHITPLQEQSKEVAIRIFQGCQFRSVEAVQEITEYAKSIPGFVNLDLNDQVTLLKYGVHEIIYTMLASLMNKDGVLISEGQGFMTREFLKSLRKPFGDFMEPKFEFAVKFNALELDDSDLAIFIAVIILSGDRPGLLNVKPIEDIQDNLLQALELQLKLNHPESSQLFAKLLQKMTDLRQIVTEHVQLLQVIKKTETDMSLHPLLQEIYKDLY
Source text: FIG. 3 provides the individual fluorescent curves for three dyes 4-[5-(4-dimethylaminophenyl)oxazol-2-yl]-N-(2-guanidinoethyl)-benzene-sulfonamide, 5-(4″-dimethylaminophenyl)-2-(4′-phenyl)oxazole sulfonate, and 1,8-anilino-napthylene sulfonate) when analyzed in a Thermofluor® instrument using the protein PPAR-gamma as described in Example 3.
4-[5-(4-dimethylaminophenyl)oxazol-2-yl]-N-(2-guanidinoethyl)-benzenesulfonamide, 5-(4″-dimethylaminophenyl)-2-(4′-phenyl)oxazole sulfonate, and 1,8-anilino-napthylene sulfonate were mixed with a protein, PPAR-gamma, each in separate wells of a polypropylene 384-well plate. Each solution consisted of 100 μM of each dye mixed with 0.2 mg/mL protein in a buffer consisting of 25 mM HEPES pH 7.9, 200 mM NaCl, 5 mM dithiothreitol, and 1 mM EDTA. Individual fluorescence curves generated by heating to different temperatures in a Thermofluor® instrument are shown in FIG. 3.

[3] = Fluorescence emission spectra of the dye in different solvents; assay type: physicochemical; conditions: 10 μM dye; shifted from aqueous buffer (50 mM HEPES, pH7.5, 150 mM sodium chloride) to nonaqueous environment (MeOH, DMSO)
Method: FIG. 1A provides the fluorescence emission spectra of 4-[5-(4-dimethylaminophenyl)oxazol-2-yl]-N-(2-guanidinoethyl)-benzenesulfonamide in methanol and in dimethylsulfoxide. Also provided is the fluroescence emission spectrum of the buffer. FIG. 1B provides part of the spectrum of FIG. 1A, showing the range from 0 to 10,000 cps.
as §1

| emission maximum (comparison dyes) [1] | measurable unfolding transition of the protein [2] | enhancement in emission intensity [3] | emission maximum of dye bound to unfolded protein ([1]; 10 μM dye, 0.1 mg/mL thrombin, 50 mM HEPES pH7.5, 150 mM NaCl, after heating to 80° C. for 5 minutes) [nm] | SMILES | change in fluorescence emission on binding to unfolded protein ([1]; 10 μM dye, 0.1 mg/mL thrombin, after heating to 80° C. for 5 minutes vs native) |
| --- | --- | --- | --- | --- | --- |
| approximately 460 nm | fail to produce a measurable transition |  |  | O=S(=O)(O)c1cccc2cccc(Nc3ccccc3)c12 [1,8-anilinonaphthylene sulfonate, reference compound] |  |
|  | can be readily monitored | 200–500 fold | 520 | CN(C)c1ccc(-c2cnc(-c3ccc(S(=O)(=O)NCCNC(=N)N)cc3)o2)cc1 [4-[5-(4-dimethylaminophenyl)oxazol-2-yl]-N-(2-guanidinoethyl)benzenesulfonamide] | substantial enhancement in fluorescence emission; also recorded: increase in fluorescence emission |
| approximately 460 nm | fail to produce a measurable transition |  |  | CN(C)c1ccc(-c2cnc(-c3ccc(S(=O)(=O)O)cc3)o2)cc1 [5-(4″-dimethylaminophenyl)-2-(4′-phenyl)oxazole sulfonate, reference compound] |  |
